“And” between values parts separate entries of the source, which are not always exact repeats. Equal values may be shown once. Read-outs that look alike come from different tables or passages of the source.
Columns and labels:
rats [1] = settings: rat, in vivo
Description: (§1) In this example, to model a drug causing liver perturbation (such as injury or hepatotoxicity), hepatotoxicant D-galactosamine (“DGAL”) was administered to rats. Male Sprague-Dawley rats were administered DGAL at 0 (sterile PBS) or 1000 mg/kg intraperitoneally, and sacrificed after 24 hours. […] Blood was harvested from DGAL-treated rats, and serum liver enzymes were measured using a standard laboratory assay.
(§2) In this example, to exemplify a drug causing liver injury, drug acetaminophen (“APAP”) was administered to rats. Rats were administered APAP at 0, 100, 700, and 1400 mg/kg by gavage, and then sacrificed at 6, 24 or 48 hours after treatment. Hematoxylin and eosin-stained liver sections were examined by an accredited pathologist and scored for incidence and severity of hepatocellular necrosis.
Using methods described previously herein, liver enzymes including serum ALT and AST levels, and plasma mRNA levels, were also assessed to determine hepatotoxicity following APAP administration.
Rats were treated with skeletal muscle toxicant bupivacaine (“BPVC”). For BPVC treatment, rats were administered 0.5 mL sterile saline or 0.5% w/v sterile solution of BPVC in saline once into both the right and left tibialis anterior muscles. […] To compare the specificity of circulating liver mRNAs with AST and ALT following skeletal muscle injury, rats were treated with BPVC, and then serum enzymes and circulating liver mRNAs were measured 24 hours after treatment.

rats [2] = assay: Whole genome microarray analysis of plasma mRNA of treated rats; format: in vivo, rat; settings: 24 h; for number of mRNA biomarkers differentially expressed: 2-fold change, false discovery rate <0.05
Excerpt: In this example, illustrated is whole genome microarray analysis, which can be used to reveal treatment-specific transcriptomic profiles following liver injury or liver enzyme induction. […] Total RNA was isolated from the 14,000×g plasma pellet from rats treated with DGAL or APAP. […] Next, this fragmented product was labeled via enzymatic attachment of a biotin-labeled nucleotide that contained an indicator molecule comprising a fluorophore. After this labeled cDNA was hybridized and bound to the oligonucleotides on the microarray, any unbound cDNA was washed away and the microarrays were scanned. During this process, the microarray chips were scanned at a wavelength that allowed the indicator molecule to fluoresce (the excitation wavelength). The level of mRNA biomarker was determined from the level of fluorescence (e.g., correlating to the amount of labeled cDNA hybridized to the microarray) using standard techniques. Data on measurement of mRNA biomarkers (which also may be representative of gene expression induced as a result of liver perturbation) was preprocessed using GC-RMA and log2-transformed. The probe-level microarray data was checked for quality using various graphical and statistical means. Arrays showing low quality RNA or poor amplification were excluded from the analysis. To evaluate the ability of whole genome microarray analysis using plasma mRNA to discriminate between DGAL- and APAP-induced liver perturbation, a one-way analysis of variance and individual t-tests were then used to identify which individual mRNA biomarkers were statistically altered between the two treatment groups. A false-discovery rate correction was used for multiple comparisons. Analysis software was utilized to identify networks of interacting genes and other functional groups using gene lists generated.

rats [3] = assay: Alb, Fgb, Hp mRNA expression in liver of treated rats (FIG. 2); format: in vivo, rat
Description: FIG. 2 is a graph showing a log2 fold change in expression of Alb, Fgb, and Hp mRNA (detected as cDNA), respectively, in liver of rats treated with DGAL, or with acetaminophen (APAP), as compared to references values determined from rats not treated with DGAL (Control; solid black boxes) or APAP (Control; solid black boxes), respectively.
At 48 hours, Hp mRNA levels were increased by 9, 54 and 86 fold over controls, respectively, at 100, 700, and 1400 mg/kg APAP; while Alb mRNA levels were increased by 13 and 31 fold at 700 and 1400 mg/kg.

rats [4] = settings: 48 hours
Description: as §1, §2

[5] = rat plasma, APAP 1400 mg/kg gavage
[6] = APAP 1400 mg/kg treatment group

## CCCCN1CCCCC1C(=O)Nc1c(C)cccc1C (stereo not shown) [BPVC, bupivacaine]
Rats [1]
  ALT: 73.70 ± 4.69 U/L
  AST: 368.25 ± 31.81 U/L
  elevation in serum ALT: 1.96 ×
  elevation in serum AST: 3.58 ×

## CC(=O)Nc1ccc(O)cc1 [APAP, acetaminophen]
Rats [2]; APAP 1400 mg/kg gavage
  number of mRNA biomarkers differentially expressed: 1374
  CYP450-related mRNAs in plasma: No increases
Rats [2]; [5]
  Fold increase Adam10: 14 fold
  Fold increase Akt3: 4 fold
  Fold increase Angpt1: 23 fold
  Fold increase Arhgef12: Arhgef12 (12); F2RI2 (12) fold
  Fold increase B2M: B2M (3) fold
  Fold increase Calr: 3 fold
  Fold increase Dapp1: 5 fold
  Fold increase F2RI2: Arhgef12 (12); F2RI2 (12) fold
  Fold increase Fcgr2b: 7 fold
  Fold increase Grin1: 10 fold
  Fold increase Gsk3b: Gsk3b (6) fold
  Fold increase Hla-C: 23 fold
  Fold increase Hla-E1: 9 fold
  Fold increase Itga6: 19 fold
  Fold increase Itgav: Itgav (12) fold
  Fold increase Itgb1: 17 fold
  Fold increase Jak2: 13 fold
  Fold increase Lyn: 10 fold
  Fold increase Mapk1: 15 fold
  Fold increase Nck2: 8 fold
  Fold increase Pdia3: Canx (5); Pdia3 (5); fold
  Fold increase Prkc: 4 fold
  Fold increase Prkcq: 3 fold
  Fold increase Psap: 20 fold
  Fold increase Rac1: 4 fold
  Fold-Change Alb mRNA (first listing): 102.57 fold and 103 fold
  Fold-Change Alb mRNA (second listing): 11.26 fold
  Fold-Change Arhgap28 mRNA: 23.18 fold
  Fold-Change C2cd21 mRNA: 21.52 fold
  Fold-Change Ccl2 mRNA: 79.83 fold
  Fold-Change Ceacam1 mRNA: 28.57 fold
  Fold-Change Cxcl2 mRNA: 68.29 fold
  Fold-Change Cxcl7 mRNA: 37.96 fold
  Fold-Change Cxcl12 mRNA: 30.90 fold and 31 fold
  Fold-Change Fam183b mRNA: 26.31 fold
  Fold-Change G1p2 mRNA: 17.16 fold
  Fold-Change Galnt1 mRNA: 22.06 fold
  Fold-Change Gpnmb mRNA: 6.10 fold
  Fold-Change Hspa1a mRNA: 40.60 fold
  Fold-Change Hspa1b mRNA: 21.07 fold
  Fold-Change Kcnab1 mRNA: 24.65 fold
  Fold-Change LOC259245 mRNA: 4.94 fold
  Fold-Change Lta4h mRNA: 6.27 fold
  Fold-Change Mt2a mRNA: 16.40 fold
  Fold-Change Pde5a mRNA: 24.18 fold
  Fold-Change Pgrmc1 mRNA: 2.82 fold
  Fold-Change Prdx5 mRNA: 2.57 fold
  Fold-Change Ptprj mRNA: 61.43 fold
  Fold-Change RT1-A2 mRNA: 22.73 fold
  Fold-Change Rbp4 mRNA: 20.44 fold
  Fold-Change Serpina1 mRNA: 24.15 fold
  Fold-Change Slc24a3 mRNA (rat SEQ ID NO: 47): 25.57 fold
  Fold-Change Slc24a3 mRNA (rat SEQ ID NO: 57): 22.11 fold
  Fold-Change Srxn1 mRNA: 21.98 fold
  Fold-Change St3gal2 mRNA: 21.94 fold
  Fold-Change Tuba4a mRNA: 4.21 fold
  Fold-Change Vcl mRNA: 70.40 fold and 70 fold
  Fold-Change Xpo5 mRNA: 30.54 fold
Rats [3]; [6]
  expression of Alb mRNA in liver: significant decrease
  expression of Hp mRNA in liver: significant decrease
Rats [4]; APAP 700 mg/kg gavage
  mortality: one rat
Rats [4]; APAP 1400 mg/kg gavage
  mortality: one rat

## N[C@H]1C(O)O[C@H](CO)[C@H](O)[C@@H]1O (stereo partly drawn) [DGAL, D-(+)-galactosamine]
Rats [2]; DGAL 1000 mg/kg ip
  number of mRNA biomarkers differentially expressed: 804
Rats [2]; rat plasma, DGAL 1000 mg/kg ip
  Fold increase Aadat: 3 fold
  Fold increase Apoc2: 23 fold
  Fold increase C9: 10 fold
  Fold increase Cf1h: 14 fold
  Fold increase Cfb: 13 fold
  Fold increase Cfi: 25 fold
  Fold increase Cyp2a2: 15 fold
  Fold increase Cyp2c9: 32 fold
  Fold increase Cyp3a2: 26 fold
  Fold increase Cyp3a4: 26 fold
  Fold increase Cyp4f12: 13 fold
  Fold increase F2: 14 fold
  Fold increase Fga: 28 fold
  Fold increase Mettl7b: Mettl7b (9) fold
  Fold increase Pla2g4a: 7 fold
  Fold increase Plg: 17 fold
  Fold increase Serping1: 7 fold
  Fold-Change Alb mRNA (first listing): 83.32 fold and 83 fold
  Fold-Change Alb mRNA (second listing): 77.08 fold
  Fold-Change Ambp mRNA: 111.24 fold and 111 fold
  Fold-Change Apoa1 mRNA: 53.34 fold and 53 fold
  Fold-Change Apoc1 mRNA: 35.57 fold and 36 fold
  Fold-Change Apoc3 mRNA: 58.09 fold
  Fold-Change Apoh mRNA: 39.84 fold
  Fold-Change Ccl2 mRNA: 25.35 fold
  Fold-Change Cyp2c7 mRNA: 102.92 fold and 103 fold
  Fold-Change Cyp2c13 mRNA: 40.38 fold and 40 fold
  Fold-Change Fgg mRNA: 65.02 fold and 65 fold
  Fold-Change Fgl1 mRNA: 52.04 fold
  Fold-Change G1p2 mRNA: 5.78 fold
  Fold-Change Gc mRNA: 42.82 fold
  Fold-Change Gpnmb mRNA: 4.04 fold
  Fold-Change Itih1 mRNA: 52.97 fold
  Fold-Change Itih3 mRNA: 40.88 fold
  Fold-Change Kng1 mRNA: 45.12 fold
  Fold-Change LOC259245 mRNA: 11.52 fold
  Fold-Change Lta4h mRNA: 3.40 fold
  Fold-Change Mt2a mRNA: 18.20 fold
  Fold-Change Mug1 mRNA: 108.00 fold
  Fold-Change Obp3 mRNA: 96.26 fold
  Fold-Change Pgrmc1 mRNA: 3.12 fold
  Fold-Change Prdx5 mRNA: 2.03 fold
  Fold-Change Rbp4 mRNA: 36.82 fold
  Fold-Change Serpina1 mRNA: 12.61 fold
  Fold-Change Serpina3k mRNA: 36.42 fold
  Fold-Change Spp2 mRNA: 34.78 fold
  Fold-Change Ttr mRNA: 60.61 fold and 61 fold
  Fold-Change Tuba4a mRNA: 2.24 fold
  Fold-Change Vtn mRNA: 57.99 fold
Rats [3]; DGAL-treated rats
  expression of Alb mRNA in liver: small but statistically insignificant decrease
  expression of Fgb mRNA in liver: significant decrease
  expression of Hp mRNA in liver: significant decrease
